We go through one compound from patent US12122811B2, “BDNF mimetic peptide amphiphiles” (Northwestern University, priority 2018, dated 2024).

Each structure is given as a SMILES string. Positions of bridges follow the written chain, without caps; N, C: chain ends. Non-standard residues stand in square brackets, D forms with d. Residues, ends and D or L forms follow the SMILES beside them. Chains are numbered I, II in the order given. *: point of attachment. PEG6 = NCCOCCOCCOCCOCCOCCOCCC(=O)O; Palmitoyl = CCCCCCCCCCCCCCCC(=O)*

One series has as its system cortical neurons. In words: Whole-cell current-clamp (patch clamp) recordings of neurons on PA gels. Type of series: cell-based, mouse. The following applies: neurons on gels up to one week; relative to E2 Filler PA. The method, then: Patch Clamp. Whole-cell current-clamp recordings were made from visually identified primary cultured neurons using inverted Olympus IX51 microscope equipped with a 40× objective. Recording pipettes were made of glass capillaries using a horizontal Sutter P-1000 puller yielding a 3-5 MΩ resistance pipette when filled with standard intracellular solution containing (in mM): 120 K-MeSO4, 10 KCl, 10 HEPES, 10 Na2-phosphocreatine, 4 Mg-ATP, 0.4 Na3-GTP, pH 7.3; 285-290 mOsm. Gels with neurons were continuously perfused with standard oxygenated aCSF bath solution (in mM): 125 NaCl, 26 NaHCO3, 2.5 KCl, 1.25 NaH2PO4, 1 MgSO4, 25 glucose, 2 CaCl2, pH 7.4 at 32-34° C. Whole-cell current-clamp data was acquired using an […] amplifier (Molecular Devices, USA) and digitized at 10 kHz (filtered at 3 kHz) with the neurons held at −65 mV. Resting membrane potential was measured immediately after breaking into the cell. Input resistance was calculated as the slope of the voltage-current curve using 500 ms current steps from −50 pA to 30 pA at 10 pA steps. There were no differences in resting membrane potentials or input resistance between the three groups. […] AP threshold was calculated where the first derivative of the up phase of the trace equals 5 mV/ms. […] Data was analyzed using MATLAB protocols designed specifically for these experiments.

Series [1] can be described thus: Dynamic light scattering (DLS). It is filed as physicochemical. The following applies: BDNF PA at 100 mol %. The method, then:
2.2.2. Dynamic Light Scattering (DLS). Measurements were performed on a Malvern Zetasizer Nano ZSP light scattering spectrometer. Samples were prepared as previously described. During the sample measurement, the temperature was kept at 25° C. The sample was equilibrated for 30 seconds before each measurement was taken. The duration of each measurement was 10 seconds and the measurement angle was 173° backscatter. The attenuator was determined by the instrument automatically, as was the number of accumulations for each run. Each measurement run was repeated 3 times.

For series [2], the system named is mouse model of spinal cord injury. In words: Mouse model of spinal cord injury, Basso Mouse Scale hind limb scoring. It is filed as in vivo. The following applies: for hindlimb function: over 12 weeks, vs E2 PA or saline. The text has this:
The spinal cord injury procedures used follow a standardized protocol to ensure a reproducible injury. Mice were anesthetized and their back is opened to reveal the vertebral column. The vertebral bone at T11 was surgically removed to reveal the spinal cord tissue. The mice were then transferred the impactor machine which is used to inflict a compression injury on the exposed spinal cord. The spinal cord was held in place using stereotactic clamps. The instrument inflicts a force of 70-80 kDynes and dwells in the place of the impact for 60 seconds to simulate a crush injury accident. This injury is quite severe. After each impact was performed, the instrument supplies a graph corresponding to the real force and trajectory of the impactor. This graph is used to compare and ensure that all animals receive an injury of the same nature. After the injury is inflicted, the animals were closed and allowed to rest for 24 hours.
The next day, the animals were re-opened and prepared for the “treatment” surgery. Before beginning the procedure, all animals underwent a behavioral assessment and mice with hind limb movement were discarded from the study. When the animal is re-opened, there was typically a dark, bruised area apparent where the crush injury took place the previous day. This is where the treatment was injected. A Hamilton syringe attached to a glass-pulled needle with a diameter of ˜300 μm was used to puncture the bruised dermis of the tissue and the treatment was injected into the underlying tissue cavity. Treatment types include; saline, and the C16V2A2E2 (E2) non-bioactive PA gel as negative controls, as well as the BDNF PA co-assembled at 20 mol % with the E2 non-bioactive PA gel.
After injection, the animals were closed and returned to cages to recover. Over the next 12 weeks, blinded hind limb behavioral scoring was performed to assess any functional changes (FIG. 21). A standardized “Basso Mouse Scale” was used (Basso et al. J Neurotrauma. 2006 May; 23(5):635-59.; herein incorporated by reference in its entirety). Two blinded researchers were either side of a runway where the mouse was guided to move in a straight line. As the mouse walks, each researcher grades the limb movement. Any discrepancies in evaluation were re-evaluated by a third researcher. The score for the two limbs was averaged and marked as the score for that animal.

For `CCCCCCCCCCCCCCCC(=O)N[C@H](C(=O)N[C@H](C(=O)N[C@@H](C)C(=O)N[C@@H](C)C(=O)N[C@@H](CCC(=O)O)C(=O)N[C@@H](CCC(=O)O)C(=O)N[C@@H](CCC(=O)O)C(=O)N[C@@H](CCC(=O)O)C(=O)NCCOCCOCCOCCOCCOCCOCCC(=O)NCCCC[C@@H]1NC(=O)[C@H]2CCCN2C(=O)[C@H](CCCNC(=N)N)NC(=O)[C@H](CCCCN)NC(=O)[C@H](CCCCN)NC1=O)C(C)C)C(C)C` [BDNF PA, RKK(aK)(dP)-(PEG6 Spacer)-EEEEAAVV-C16 (SEQ ID NO: 5)] (I: Palmitoyl-VVAAEEEE[PEG6] / II: cyclo(KKKR[dP]); amide I:C-II:1), the “number of action potentials” value with cortical neurons is recorded as “higher number of action potentials”. Besides, the “micelle diameter (DLS)” value in series [1] was approximately 12 nm. In series [2] (12 weeks after injury, BDNF PA co-assembled at 20 mol % with E2 PA gel, injected 24 h after injury), the “final average limb behavioral score (Basso Mouse Scale)” value stood at 3.7. The “rate of hindlimb improvement” value in series [2] (first three weeks following injury) is given as “increased rate of hindlimb improvement”. Besides, the hindlimb function entry in series [2] was “increased functional hind limb recovery”; in series [2] (listed as BDNF mimetic PA) it was “significant improvement in hindlimb function”.
